Consider two compounds from US9012640B2, “Cabergoline derivatives” (MAP Pharmaceuticals, Inc., priority 2012, dated 2015).

The target in assay [1] is T1, Recombinant human serotonin receptor 5-HT2A (Homo sapiens, UniProt P28223).
T1 construct: expressed in transfected cells; host or cells: CHO-K1 (coexpressing mitochondrial apoaequorin)
In words: Aequorin assay, receptor agonist/antagonist activity, CHO-K1 cells. It is filed as cell-based. How it is done:
(§1) Compound 1 was synthesized as described above and assayed for receptor activity against a panel of dopaminergic and serotoninergic receptors. Recombinant human serotonin receptors 5-HT2A, and 5-HT2B were expressed in CHO-K1 cells and activity (receptor agonist/antagonist activity) was assayed using an Aequorin assay (coexpression of mitochondrial apoaequorin). Compound 1 was used at a concentration of 0.010 nM to 20,000 nM for agonist activity and 0.005 nM to 10,000 nM for antagonist activity.

The target in assay [2] is T2, Recombinant human serotonin receptor 5-HT2B (Homo sapiens, UniProt P41595).
T2 construct: expressed in transfected cells; host or cells: CHO-K1 (coexpressing mitochondrial apoaequorin)
The assay is described as above. It is filed as cell-based. Here is the method: as §1

The target of assay [3] is Recombinant human dopaminergic receptor D1 (Homo sapiens, UniProt P21728). In words: GTPγS functional assay. It is filed as biochemical. How it is done: (§2) Recombinant human dopaminergic receptor D1, D2L, and D4 and serotonin receptor 5-HT1B and 5-HTID activity was assayed using a GTPΥS functional assay with Compound 1 at concentrations between 0.01 nM and 10,000 nM.
The target of assay [4] is Recombinant human dopaminergic receptor D2L (Homo sapiens, UniProt P14416). In words: GTPγS functional assay. Format: biochemical. The conditions noted are these: read-out: EC50, agonist activity with the D2L receptor. Here is the method:
as §2

Assay [5] concerns the target T3, Recombinant human dopaminergic receptor D4 (Homo sapiens, UniProt P21917).
T3 sequence (P21917 1-419): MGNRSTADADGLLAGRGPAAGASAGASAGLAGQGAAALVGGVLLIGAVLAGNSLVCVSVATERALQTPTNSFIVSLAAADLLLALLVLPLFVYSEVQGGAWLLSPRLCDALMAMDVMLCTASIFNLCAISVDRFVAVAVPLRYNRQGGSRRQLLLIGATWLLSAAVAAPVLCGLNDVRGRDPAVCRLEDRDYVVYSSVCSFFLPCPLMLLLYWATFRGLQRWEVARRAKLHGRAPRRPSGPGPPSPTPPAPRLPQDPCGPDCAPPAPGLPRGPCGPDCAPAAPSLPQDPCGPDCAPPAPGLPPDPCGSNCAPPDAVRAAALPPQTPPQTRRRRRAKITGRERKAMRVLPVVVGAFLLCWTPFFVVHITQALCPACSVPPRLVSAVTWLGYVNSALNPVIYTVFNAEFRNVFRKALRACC
In words: GTPγS functional assay. It is filed as biochemical. How it is done: as §2

The target of assay [6] is T4, serotonin receptor 5-HT1B (Homo sapiens, UniProt P28222). In words: GTPγS functional assay. Format: biochemical. Conditions: 0.01 nM to 10,000 nM. How it is done: as §2
Assay [7] deals with T5, serotonin receptor 5-HT1D (Homo sapiens, UniProt P28221). The assay is described as follows: GTPγS functional assay. It is filed as biochemical. How it is done: as §2
Assay [8] deals with T1, Recombinant human serotonin receptor 5-HT2A. The conditions noted are these: reported, Newman-Tancredi et al. 2002; read-out: reported EC50 on 5-HT2A receptors; cited from earlier work.
For assay [9], the target named is T2, Recombinant human serotonin receptor 5-HT2B. The conditions noted are these: reported, Newman-Tancredi et al. 2002; read-out: reported EC50 on 5-HT2B receptors; cited from earlier work.
The target in assay [10] is T3, Recombinant human dopaminergic receptor D4. Conditions: cited from earlier work.
Assay [11] has as its target T5, serotonin receptor 5-HT1D. The conditions noted are these: cited from earlier work.
Assay [12] concerns the target T4, serotonin receptor 5-HT1B. Conditions: read-out: EC50 on 5-HT1B receptors, reported; Newman-Tancredi et al. 2002; cited from earlier work.

The structures appear in SMILES notation. Read-outs that look alike come from different tables or passages of the source.

T2 sequence (P41595 whole entry): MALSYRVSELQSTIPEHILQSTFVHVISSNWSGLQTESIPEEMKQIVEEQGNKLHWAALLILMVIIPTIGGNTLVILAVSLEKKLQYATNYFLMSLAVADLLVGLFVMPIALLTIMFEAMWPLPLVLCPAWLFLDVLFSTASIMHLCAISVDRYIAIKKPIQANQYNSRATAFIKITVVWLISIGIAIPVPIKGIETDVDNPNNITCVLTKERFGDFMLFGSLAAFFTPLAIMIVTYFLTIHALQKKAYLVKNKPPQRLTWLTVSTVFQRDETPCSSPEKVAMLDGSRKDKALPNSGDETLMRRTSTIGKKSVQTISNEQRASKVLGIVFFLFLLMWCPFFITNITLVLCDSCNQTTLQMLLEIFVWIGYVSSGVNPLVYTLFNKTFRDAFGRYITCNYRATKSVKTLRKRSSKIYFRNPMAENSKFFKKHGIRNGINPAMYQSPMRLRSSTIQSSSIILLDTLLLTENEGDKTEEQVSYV
T1 sequence (P28223 whole entry): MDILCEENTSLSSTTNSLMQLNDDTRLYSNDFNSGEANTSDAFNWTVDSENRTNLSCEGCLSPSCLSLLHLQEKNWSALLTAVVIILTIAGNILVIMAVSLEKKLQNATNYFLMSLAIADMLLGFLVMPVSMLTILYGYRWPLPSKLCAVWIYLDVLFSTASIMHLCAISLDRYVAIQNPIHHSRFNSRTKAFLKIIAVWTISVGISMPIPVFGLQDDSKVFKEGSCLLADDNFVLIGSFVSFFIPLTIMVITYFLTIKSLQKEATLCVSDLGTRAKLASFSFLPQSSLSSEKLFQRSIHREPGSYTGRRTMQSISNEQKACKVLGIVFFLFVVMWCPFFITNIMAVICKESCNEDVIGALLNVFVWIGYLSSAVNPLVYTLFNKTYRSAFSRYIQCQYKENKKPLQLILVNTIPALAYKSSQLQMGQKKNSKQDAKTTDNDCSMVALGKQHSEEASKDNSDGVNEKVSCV
T5 sequence (P28221 whole entry): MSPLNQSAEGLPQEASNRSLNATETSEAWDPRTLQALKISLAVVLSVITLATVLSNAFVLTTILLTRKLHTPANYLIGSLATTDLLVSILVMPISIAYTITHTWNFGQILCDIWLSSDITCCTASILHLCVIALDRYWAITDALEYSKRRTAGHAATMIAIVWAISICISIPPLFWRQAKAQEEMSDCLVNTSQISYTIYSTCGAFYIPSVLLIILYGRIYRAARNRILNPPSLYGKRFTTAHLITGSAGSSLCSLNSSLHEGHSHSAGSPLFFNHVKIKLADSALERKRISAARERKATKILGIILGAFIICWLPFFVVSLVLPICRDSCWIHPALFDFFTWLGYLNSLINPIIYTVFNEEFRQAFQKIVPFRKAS
T4 sequence (P28222 whole entry): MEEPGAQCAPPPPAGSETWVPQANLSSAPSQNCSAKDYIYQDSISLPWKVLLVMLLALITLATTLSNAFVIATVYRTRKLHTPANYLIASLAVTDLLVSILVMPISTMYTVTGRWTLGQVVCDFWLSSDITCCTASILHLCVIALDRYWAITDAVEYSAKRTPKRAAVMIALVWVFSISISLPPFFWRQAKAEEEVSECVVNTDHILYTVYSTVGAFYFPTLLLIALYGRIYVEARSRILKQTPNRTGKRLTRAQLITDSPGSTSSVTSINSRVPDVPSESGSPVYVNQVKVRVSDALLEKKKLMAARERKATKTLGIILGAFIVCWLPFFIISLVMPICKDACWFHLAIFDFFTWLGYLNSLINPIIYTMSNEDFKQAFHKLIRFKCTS
Chain of Recombinant human dopaminergic receptor D1 (P21728 whole entry): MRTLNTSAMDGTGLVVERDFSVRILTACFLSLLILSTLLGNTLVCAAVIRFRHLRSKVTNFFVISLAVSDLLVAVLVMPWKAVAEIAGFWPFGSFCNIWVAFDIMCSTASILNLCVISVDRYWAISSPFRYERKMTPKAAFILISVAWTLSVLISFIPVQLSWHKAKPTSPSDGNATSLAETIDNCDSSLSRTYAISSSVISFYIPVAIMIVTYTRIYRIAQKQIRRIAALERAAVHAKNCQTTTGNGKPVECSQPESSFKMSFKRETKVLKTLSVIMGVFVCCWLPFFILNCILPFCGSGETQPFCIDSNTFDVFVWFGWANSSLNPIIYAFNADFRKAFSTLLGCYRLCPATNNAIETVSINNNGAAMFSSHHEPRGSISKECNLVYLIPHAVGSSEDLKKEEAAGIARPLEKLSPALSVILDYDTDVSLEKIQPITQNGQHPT
Chain of Recombinant human dopaminergic receptor D2L (P14416 whole entry): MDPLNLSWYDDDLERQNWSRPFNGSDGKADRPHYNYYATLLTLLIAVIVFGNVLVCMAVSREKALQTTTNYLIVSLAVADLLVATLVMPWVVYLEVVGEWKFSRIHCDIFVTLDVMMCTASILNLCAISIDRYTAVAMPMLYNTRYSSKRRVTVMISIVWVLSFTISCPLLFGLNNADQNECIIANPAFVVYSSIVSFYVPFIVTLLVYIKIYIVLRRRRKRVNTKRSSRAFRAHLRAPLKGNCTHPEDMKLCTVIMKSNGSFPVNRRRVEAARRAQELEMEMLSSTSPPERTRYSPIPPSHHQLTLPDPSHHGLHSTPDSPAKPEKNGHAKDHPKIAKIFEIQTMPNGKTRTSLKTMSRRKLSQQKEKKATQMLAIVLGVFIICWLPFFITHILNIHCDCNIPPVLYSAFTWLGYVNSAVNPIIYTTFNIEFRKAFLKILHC

The term EC50 denotes the concentration needed to bring the measured effect to its halfway point. What is called Emax is the maximal effect, on the per cent scale that the assay sets. For the compound `C=CCN1C[C@H](C(=O)N(CCCN(C)C)C(=O)NCC)C[C@@H]2c3cccc4[nH]c(C(F)(F)F)c(c34)C[C@H]21` [Compound 1], the EC50 in assay [1] (agonist activity, Aequorin assay, CHO-K1, read-out: EC50 on 5-HT2A receptors) was determined as 946 nM; in [2] (agonist activity, Aequorin assay, CHO-K1, read-out: EC50 on 5-HT2B receptors) it was 6050 nM; in [4], 12.6 nM; in assay [7] (GTPγS, read-out: EC50, agonist on 5-HT1D receptors) it was 263 nM. Besides, the “5-HT2A receptor agonist activity in words” value in [1] (as compared to cabergoline) is on record as “weak”. Moreover, in assay [2] (as compared to cabergoline), the “5-HT2B receptor agonist activity in words” value is given as “weak”. Besides, in assay [3], the “selectivity for the D2L receptor over the D1 receptor” value is “approximately 110 fold”. Besides, the Emax in assay [5] (GTPγS, receptor not given, follows the D2L/D4 comparison) is 26%; in [7] (GTPγS, read-out: Emax on 5-HT1D receptors) it was 31%. In addition, the “D2L to D4 receptor selectivity” value in [5] (when comparing EC50) is on record as 18 fold. In assay [6], the “activity on 5-HT1B receptors” value is given as “not active”. The “agonist activity on serotonin receptor 5-HT1D in words” value in assay [7] is on record as “weak agonist activity”.

Regarding `C=CCN1C[C@H](C(=O)N(CCCN(C)C)C(=O)NCC)C[C@@H]2c3cccc4[nH]cc(c34)C[C@H]21` [cabergoline, Cabergoline], the EC50 is 7.8 nM in assay [8]; 2.6 nM in assay [9]; 16 nM in assay [11] (Newman-Tancredi et al. 2002, read-out: EC50 on 5-HT1D receptors, reported); 2240 nM in assay [12]. The “D2L to D4 receptor selectivity, reported” value in [10] (reported results for cabergoline) was roughly 200 fold. Also, the “Emax, reported” value in [10] (reported values, Newman-Tancredi et al. 2002, receptor not given) is given as 49%. In addition, in [11] (comparison value for cabergoline), the “Emax on 5-HT1D receptors, cabergoline comparison” value is 68%.
